Measured values published in patent US8404844B2, “Perylene semiconductors and methods of preparation and use thereof” (BASF SE, priority 2008, dated 2013).
In brackets after ≈: the same amount, converted by molar mass.

Assays:
[1] = Cyclic voltammetry (reduction potential); assay type: physicochemical; details: 0.1 M THF/TBAPF6, under N2, bare Ag reference electrode, scan 60-150 mV/s
Method: Cyclic voltammetry experiments were conducted using an Epsilon single-channel […] and a BAS C3 cell stand (a one-compartment cell with a C disk working electrode, a bare Ag reference electrode, and a Pt wire counter electrode). Appropriate precautions were taken to eliminate water and oxygen during measurement. All measurements were performed under N2 by dissolving the compound (1-3 mg) in a 0.1 M THF/TBAPF6 solutions with scanning rates between 60-150 mV/s. When the voltammograms are (quasi)reversible, it is possible to extract formal potentials (E^1/2) as the midpoints between peak potentials for the forward and reverse scans.
Table 1 summarizes certain physical and electrical properties of some compounds of the present teachings, including Ered values obtained from the cyclic voltammetry experiments. N,N′-Bis(4-n-octyl)-1,7-dicyanoperylene-3,4:9,10-bis(dicarboximide) (PDI8-CN2), N,N′-bis[(3S)-3,7-dimethyl-6-octenyl]-1,7-dicyanoperylene-3,4:9,10-bis(dicarboximide) (PDICitr-CN2), N,N′-bis(2-ethylhexyl)-1,7-dicyanoperylene-3,4:9,10-bis(dicarboximide) (PDI2EH-CN2), and N,N′-bis(2-methylhexyl)-1,7-dicyanoperylene-3,4:9,10-bis(dicarboximide) (PDI2MH-CN2) were included as comparative representative compounds.

[2] = Solubility in organic solvents; assay type: physicochemical; details: for Solubility DCB: dichlorobenzene (DCB); for Solubility CHCl3: chloroform; for Solubility compared to similar compounds: compared to PDI8-CN2, PDI2EH-CN2, PDICitr-CN2 and PDI2MH-CN2
Method: As certain embodiments of the compounds disclosed herein can be soluble in common solvents, the present teachings can offer processing advantages in fabricating electrical devices such as thin film semiconductors, field-effect devices, organic light emitting diodes (OLEDs), organic photovoltaics, photodetectors, capacitors, and sensors. As used herein, a compound can be considered soluble in a solvent when at least 1 mg of the compound can be dissolved in 1 mL of the solvent. Examples of common organic solvents include petroleum ethers; acetonitrile; aromatic hydrocarbons such as benzene, toluene, xylene, and mesitylene; ketones such as acetone and methyl ethyl ketone; ethers such as tetrahydrofuran, dioxane, bis(2-methoxyethyl)ether, diethyl ether, di-isopropyl ether, and t-butyl methyl ether; alcohols such as methanol, ethanol, butanol, and isopropyl alcohol; aliphatic hydrocarbons such as hexanes; acetates such as methyl acetate, ethyl acetate, methyl formate, ethyl formate, isopropyl acetate, and butyl acetate; amides such as dimethylformamide and dimethylacetamide; sulfoxides such as dimethylsulfoxide; halogenated aliphatic and aromatic hydrocarbons such as dichloromethane, chloroform, ethylene chloride, chlorobenzene, dichlorobenzene, and trichlorobenzene; and cyclic solvents such as cyclopentanone, cyclohexanone, and 2-methypyrrolidone. Examples of common inorganic solvents include water and ionic liquids.
Greater solubilities (2-10 times) can be achieved using warm solvents.

| Structure (SMILES) | Ered [1] | Solubility DCB [2] | Solubility CHCl3 [2] | Solubility (DCB, 70° C.) [2] | Solubility compared to similar compounds [2] |
| --- | --- | --- | --- | --- | --- |
| CCC(CC)N1C(=O)c2ccc3c4c(C#N)cc5c6c(ccc(c7c(C#N)cc(c2c37)C1=O)c64)C(=O)N(C(CC)CC)C5=O [PDI1EPr-CN2, N,N′-bis(1-ethylpropyl)-1,7-dicyanoperylene-3,4:9,10-bis(dicarboximide)] | −0.101 V | 10000 µg/mL (≈ 17.2 mM) |  |  |  |
| CC(C)=CCC[C@H](C)CCN1C(=O)c2ccc3c4c(C#N)cc5c6c(ccc(c7c(C#N)cc(c2c37)C1=O)c64)C(=O)N(CC[C@@H](C)CCC=C(C)C)C5=O [PDICitr-CN2, N,N′-bis[(3S)-3,7-dimethyl-6-octenyl]-1,7-dicyanoperylene-3,4:9,10-bis(dicarboximide), reference compound] | −0.142 V | 8000 µg/mL (≈ 11.2 mM) |  |  |  |
| CCC(C)N1C(=O)c2ccc3c4c(Br)cc5c6c(ccc(c7c(Br)cc(c2c37)C1=O)c64)C(=O)N(C(C)CC)C5=O (stereo not shown) [PDI1MPr-Br2, N,N′-bis(1-methylpropyl)-1,7-dibromoperylene-3,4:9,10-bis(dicarboximide)] | −0.40 V |  |  |  |  |
| CCCC(C)N1C(=O)c2ccc3c4c(Br)cc5c6c(ccc(c7c(Br)cc(c2c37)C1=O)c64)C(=O)N(C(C)CCC)C5=O (stereo not shown) [PDI1MB-Br2, N,N′-bis(1-methylbutyl)-1,7-dibromoperylene-3,4:9,10-bis(dicarboximide)] | −0.39 V |  |  |  |  |
| CCCC(CC)N1C(=O)c2ccc3c4c(Br)cc5c6c(ccc(c7c(Br)cc(c2c37)C1=O)c64)C(=O)N(C(CC)CCC)C5=O (stereo not shown) [PDI1EB-Br2, N,N′-bis(1-ethylbutyl)-1,7-dibromoperylene-3,4:9,10-bis(dicarboximide)] | −0.34 V |  |  |  |  |
| CCC(CC)N1C(=O)c2ccc3c4c(Br)cc5c6c(ccc(c7c(Br)cc(c2c37)C1=O)c64)C(=O)N(C(CC)CC)C5=O [PDI1EPr-Br2, N,N′-bis(1-ethylpropyl)-1,7-dibromoperylene-3,4:9,10-bis(dicarboximide)] | −0.38 V |  |  |  |  |
| CCCC(C)N1C(=O)c2ccc3c4c(C#N)cc5c6c(ccc(c7c(C#N)cc(c2c37)C1=O)c64)C(=O)N(C(C)CCC)C5=O (stereo not shown) [PDI1MB-CN2, N,N′-bis(1-methylbutyl)-1,7-dicyanoperylene-3,4:9,10-bis(dicarboximide)] | −0.083 V | 5000 µg/mL (≈ 8.61 mM) |  |  |  |
| CCCCCCCCN1C(=O)c2ccc3c4c(C#N)cc5c6c(ccc(c7c(C#N)cc(c2c37)C1=O)c64)C(=O)N(CCCCCCCC)C5=O [PDI8-CN2, N,N′-Bis(4-n-octyl)-1,7-dicyanoperylene-3,4:9,10-bis(dicarboximide), reference compound] | −0.150 V | 4000 µg/mL (≈ 6.02 mM) | 4000 µg/mL (≈ 6.02 mM) |  |  |
| CCCCC(C)N1C(=O)c2ccc3c4c(C#N)cc5c6c(ccc(c7c(C#N)cc(c2c37)C1=O)c64)C(=O)N(C(C)CCCC)C5=O (stereo not shown) [PDI1MP-CN2, N,N′-bis(1-methylpentyl)-1,7-dicyanoperylene-3,4:9,10-bis(dicarboximide)] | −0.071 V | 40000 µg/mL (≈ 65.7 mM) | 43000 µg/mL (≈ 70.6 mM) | 41800 µg/mL (≈ 68.7 mM) | unexpected increase in solubility |
| CC(C)CC(C)N1C(=O)c2ccc3c4c(Br)cc5c6c(ccc(c7c(Br)cc(c2c37)C1=O)c64)C(=O)N(C(C)CC(C)C)C5=O (stereo not shown) [PDI1M3MB-Br2, N,N′-bis(1,3-dimethylbutyl)-1,7-dibromoperylene-3,4:9,10-bis(dicarboximide)] | −0.39 V |  |  |  |  |
| CCCCC(CC)CN1C(=O)c2ccc3c4c(C#N)cc5c6c(ccc(c7c(C#N)cc(c2c37)C1=O)c64)C(=O)N(CC(CC)CCCC)C5=O (stereo not shown) [PDI2EH-CN2, N,N′-bis(2-ethylhexyl)-1,7-dicyanoperylene-3,4:9,10-bis(dicarboximide), reference compound] | −0.130 V | 5000 µg/mL (≈ 7.52 mM) | 5000 µg/mL (≈ 7.52 mM) |  |  |
| CCCC(CC)N1C(=O)c2ccc3c4c(C#N)cc5c6c(ccc(c7c(C#N)cc(c2c37)C1=O)c64)C(=O)N(C(CC)CCC)C5=O (stereo not shown) [PDI1EB-CN2, N,N′-bis(1-ethylbutyl)-1,7-dicyanoperylene-3,4:9,10-bis(dicarboximide)] | −0.106 V | 10000 µg/mL (≈ 16.4 mM) | 8000 µg/mL (≈ 13.1 mM) |  |  |
| CCCCCC(C)N1C(=O)c2ccc3c4c(Br)cc5c6c(ccc(c7c(Br)cc(c2c37)C1=O)c64)C(=O)N(C(C)CCCCC)C5=O (stereo not shown) [PDI1MH-Br2, N,N′-bis(1-methylhexyl)-1,7-dibromoperylene-3,4:9,10-bis(dicarboximide)] | −0.38 V |  |  |  |  |
| CC(C)CC(C)N1C(=O)c2ccc3c4c(C#N)cc5c6c(ccc(c7c(C#N)cc(c2c37)C1=O)c64)C(=O)N(C(C)CC(C)C)C5=O (stereo not shown) [PDI1M3MB-CN2, N,N′-bis(1,3-dimethylbutyl)-1,7-dicyanoperylene-3,4:9,10-bis(dicarboximide)] | −0.088 V | 37000 µg/mL (≈ 60.8 mM) | 30000 µg/mL (≈ 49.3 mM) | 37100 µg/mL (≈ 60.9 mM) | unexpected increase in solubility |
| CCCCC(C)CN1C(=O)c2ccc3c4c(C#N)cc5c6c(ccc(c7c(C#N)cc(c2c37)C1=O)c64)C(=O)N(CC(C)CCCC)C5=O (stereo not shown) [PDI2MH-CN2, N,N′-bis(2-methylhexyl)-1,7-dicyanoperylene-3,4:9,10-bis(dicarboximide), reference compound] | −0.120 V | 5000 µg/mL (≈ 7.85 mM) |  |  |  |
| CCCCCC(C)N1C(=O)c2ccc3c4c(C#N)cc5c6c(ccc(c7c(C#N)cc(c2c37)C1=O)c64)C(=O)N(C(C)CCCCC)C5=O (stereo not shown) [PDI1MH-CN2, N,N′-bis(1-methylhexyl)-1,7-dicyanoperylene-3,4:9,10-bis(dicarboximide)] | −0.094 V | 52000 µg/mL (≈ 81.7 mM) | 54000 µg/mL (≈ 84.8 mM) |  | unexpected increase in solubility |
| CCCCC(C)N1C(=O)c2ccc3c4c(Br)cc5c6c(ccc(c7c(Br)cc(c2c37)C1=O)c64)C(=O)N(C(C)CCCC)C5=O (stereo not shown) [PDI1MP-Br2, N,N′-bis(1-methylpentyl)-1,7-dibromoperylene-3,4:9,10-bis(dicarboximide)] | −0.41 V |  |  |  |  |
| CCC(C)N1C(=O)c2ccc3c4c(C#N)cc5c6c(ccc(c7c(C#N)cc(c2c37)C1=O)c64)C(=O)N(C(C)CC)C5=O (stereo not shown) [PDI1MPr-CN2, N,N′-bis(1-methylpropyl)-1,7-dicyanoperylene-3,4:9,10-bis(dicarboximide)] | −0.091 V | 8000 µg/mL (≈ 14.5 mM) |  |  |  |
